# Source: patent publication US8906953B2, “Pyrrolidine substitute flavones for the treatment of inflammatory disorders” (Piramal Enterprises Limited, priority 2010, dated 2014)
# Counter-ions that a name gives are not always drawn.
# System: TNF-α
# Assay: LPS-induced TNF-α release from hPBMCs (ELISA)
# Type: cell-based
# Settings: Homo sapiens; LPS-stimulated hPBMCs, 5 hours; read-out: Activity (TNF-α) IC50
# Procedure: Cytokine production by lipopolysaccharides (LPS) in hPBMCs (human peripheral blood mononuclear cells) was measured as in reference, Physiol. Res. 2003, 52, 593-598, the disclosure of which is incorporated by reference for the teaching of the assay. Blood was collected from healthy donors into Potassium EDTA vacutainer tubes (BID vacutainer). The PBMC were isolated using gradient centrifugation in Histopaque-1077 solution (Sigma). Isolated PBMC were suspended in RPMI 1640 (Rosewell Park Memorial Institute) culture medium (Sigma-Aldrich Fine Chemicals, USA) containing 10% fetal bovine serum (FBS) (JRH, USA), 100 U/mL penicillin (Sigma Chemical Co. St Louis, Mo., USA) and 100 μg/mL streptomycin (Sigma Chemical Co. St Louis, Mo.). The cell concentration was adjusted to 1×10^6 cells/mL. The viability as determined by trypan blue dye exclusion was uniform Ly≧98%. The cell suspension (100 μL) was added to the wells of a 96-well culture plate. Following cell plating, 79 μL of the culture medium and 1 μL of various concentrations of test compounds (compounds of formula 1) (final concentration 0.001, 0.003, 0.005, 0.01, 0.025, 0.03, 0.05, 0.1, 0.25, 0.3 and 1 μM) dissolved in DMSO (dimethyl sulfoxide, Sigma, Mo., USA) were added to the cells. The final concentration of DMSO was adjusted to 0.5%. The vehicle (0.5% DMSO) was used as control. […] The plates were incubated for 30 minutes at 37° C. in an atmosphere of 5% CO2. Finally, 20 μL (10 μg/mL) per well of LPS, (Escherchia coli 0127:B8, Sigma Chemical Co., St. Louis, Mo.) was added to the wells of the incubated plates, for a final concentration of 1 μg/mL. The plates were incubated at 37° C. for 5 hours in an atmosphere of 5% CO2. […] Supernatants were harvested and assayed for TNF-α, IL-1β, IL-6 and IL-8 by ELISA as described by the manufacturer. (OptiEIA ELISA sets, BD Biosciences, Pharmingen). The 50% inhibitory concentration (IC50) values were calculated by a nonlinear regression method using GraphPad software (Prism 3.03).
row,Compound,IC50 [nM]
1,"CN1CC[C@@H](c2c(O)cc(O)c3c(=O)cc(-c4cccc(C(F)(F)F)c4Cl)oc23)[C@@H]1CO [Compound of example 42, (+)-trans-2-(2-Chloro-3-trifluoromethyl-phenyl)-5,7-dihydroxy-8-(2-hydroxymethyl-1-methyl-pyrrolidin-3-yl)-chromen-4-one hydrochloride]",2400
2,"CN1CC[C@@H](c2c(O)cc(O)c3c(=O)cc(-c4cccc(Cl)c4Cl)oc23)[C@@H]1CO [Compound of example 58, (+)-trans-2-(2,3-Dichloro-phenyl)-5,7-dihydroxy-8-(2-hydroxymethyl-1-methyl-pyrrolidin-3-yl)-chromen-4-one hydrochloride]",1500
3,"CN1CC[C@@H](c2c(O)cc(O)c3c(=O)cc(-c4cccc([N+](=O)[O-])c4)oc23)[C@@H]1CO [Compound of example 26, (+)-trans-5,7-dihydroxy-8-(2-hydroxymethyl-1-methyl-pyrrolidin-3-yl)-2-(3-nitrophenyl)-chromen-4-one hydrochloride]",400
4,"CN1CC[C@@H](c2c(O)cc(O)c3c(=O)cc(-c4ccc(C#N)cc4Cl)oc23)[C@@H]1CO [Compound of example 12, (+)-trans-2-(2-Chloro-4-cyano-phenyl)-5,7-dihydroxy-8-(2-hydroxymethyl-1-methyl-pyrrolidin-3-yl)-chromen-4-one hydrochloride]",1500
5,"CN1CC[C@@H](c2c(O)cc(O)c3c(=O)cc(-c4cc(F)ccc4Cl)oc23)[C@@H]1CO [Compound of example 20, (+)-trans-2-(2-Chloro-5-fluoro-phenyl)-5,7-dihydroxy-8-(2-hydroxymethyl-1-methyl-pyrrolidin-3-yl)-chromen-4-one hydrochloride]",700
6,"CN1CC[C@@H](c2c(O)cc(O)c3c(=O)cc(-c4ccc([N+](=O)[O-])cc4Br)oc23)[C@@H]1CO [Compound of example 16, (+)-trans-2-(2-Bromo-4-nitro-phenyl)-5,7-dihydroxy-8-(2-hydroxymethyl-1-methyl-pyrrolidin-3-yl)-chromen-4-one hydrochloride]",300
7,"CN1CC[C@@H](c2c(O)cc(O)c3c(=O)cc(-c4cccc(I)c4Cl)oc23)[C@@H]1CO [Compound of example 62, (+)-trans-2-(2-Chloro-3-iodo-phenyl)-5,7-dihydroxy-8-(2-hydroxymethyl-1-methyl-pyrrolidin-3-yl)-chromen-4-one hydrochloride]",1300
8,"CN1CC[C@@H](c2c(O)cc(O)c3c(=O)cc(-c4cccc([N+](=O)[O-])c4Cl)oc23)[C@@H]1CO [Compound of example 38, (+)-trans-2-(2-Chloro-3-nitro-phenyl)-5,7-dihydroxy-8-(2-hydroxymethyl-1-methyl-pyrrolidin-3-yl)-chromen-4-one hydrochloride]",1300
9,"CN1CC[C@@H](c2c(O)cc(O)c3c(=O)cc(-c4ccc(Cl)cc4Cl)oc23)[C@@H]1CO [Compound of example 18, (+)-trans-2-(2,4-Dichloro-phenyl)-5,7-dihydroxy-8-(2-hydroxymethyl-1-methyl-pyrrolidin-3-yl)-chromen-4-one hydrochloride]",300
10,"Cc1cccc(-c2cc(=O)c3c(O)cc(O)c([C@@H]4CCN(C)[C@H]4CO)c3o2)c1Cl [Compound of example 46, (+)-trans-2-(2-Chloro-3-methyl-phenyl)-5,7-dihydroxy-8-(2-hydroxymethyl-1-methyl-pyrrolidin-3-yl)-chromen-4-one hydrochloride]",500
11,"CN1CC[C@@H](c2c(O)cc(O)c3c(=O)cc(-c4ccccc4Cl)oc23)[C@@H]1CO [Compound of example 7, (+)-trans-2-(2-Chloro-phenyl)-5,7-dihydroxy-8-(2-hydroxymethyl-1-methyl-pyrrolidin-3-yl)-chromen-4-one hydrochloride]",200
12,"CN1CC[C@@H](c2c(O)cc(O)c3c(=O)cc(-c4cccc(Cl)c4)oc23)[C@@H]1CO [Compound of example 34, (+)-trans-2-(3-Chloro-phenyl)-5,7-dihydroxy-8-(2-hydroxymethyl-1-methyl-pyrrolidin-3-yl)-chromen-4-one hydrochloride]",2500
13,"CC(C)Nc1cccc(-c2cc(=O)c3c(O)cc(O)c([C@@H]4CCN(C)[C@H]4CO)c3o2)c1Cl [Compound of example 66, (+)-trans-2-(2-Chloro-3-isopropylamino-phenyl)-5,7-dihydroxy-8-(2-hydroxymethyl-1-methyl-pyrrolidin-3-yl)-chromen-4-one hydrochloride]",900
14,"CN1CC[C@@H](c2c(O)cc(O)c3c(=O)cc(-c4cccs4)oc23)[C@@H]1CO [Compound of example 22, (+)-trans-5,7-Dihydroxy-8-(2-hydroxymethyl-1-methyl-pyrrolidin-3-yl)-2-thiophen-2-yl-chromen-4-one hydrochloride]",2300
15,"CN1CC[C@@H](c2c(O)cc(O)c3c(=O)cc(-c4cccc(Br)c4Cl)oc23)[C@@H]1CO [Compound of example 30, (+)-trans-2-(3-Bromo-2-chloro-phenyl)-5,7-dihydroxy-8-(2-hydroxymethyl-1-methyl-pyrrolidin-3-yl)-chromen-4-one hydrochloride]",4100
16,"CN1CC[C@@H](c2c(O)cc(O)c3c(=O)cc(-c4ccc([N+](=O)[O-])cc4Cl)oc23)[C@@H]1CO [Compound of example 5, (+)-trans-2-(2-Chloro-4-nitro-phenyl)-5,7-dihydroxy-8-(2-hydroxymethyl-1-methyl-pyrrolidin-3-yl)-chromen-4-one hydrochloride]",400
17,"CN1CC[C@@H](c2c(O)cc(O)c3c(=O)cc(-c4cc(F)ccc4Br)oc23)[C@@H]1CO [Compound of example 9, (+)-trans-2-(2-Bromo-5-fluoro-phenyl)-5,7-dihydroxy-8-(2-hydroxymethyl-1-methyl-pyrrolidin-3-yl)-chromen-4-one hydrochloride]",900

# System: PDE4
# Assay: PDE4 inhibition, cAMP fluorescence assay in salbutamol-stimulated U937 cells
# Type: cell-based, human
# Settings: U937 cells, concentration 0.3 μM, salbutamol 1 μM
# Procedure: Culture medium was changed every 2-3 days and always 24 hours before harvest. RPMI medium, FBS and Salbutamol were purchased from Sigma-Aldrich (USA). Rolipram was synthesized in the Medicinal Chemistry Department, Piramal Life Sciences Limited.
# Rolipram was used as a standard (0.3, 1 and 3 μM). […] Fluorescence measurements were taken with Polarstar Optima (BMG Labtech-Germany).
# Relative fluorescence was calculated using the following formula where: RF=Relative Fluorescence, Fo=fluorescent intensity of the blank or buffer control, F=fluorescence of cAMP or sample: RF=(Fo−F)/Fo
# A standard curve was plotted using the RF values of the given standards and the values of cAMP corresponding to the test compounds were determined using the standard plot.
row,Compound,Relative Fluorescence (RF)
1,"COc1ccc(C2CNC(=O)C2)cc1OC1CCCC1 (stereo not drawn) [Rolipram, reference compound]",1.39

# Same assay, conditions: U937 cells, concentration 1 μM, salbutamol 1 μM
row,Compound,Relative Fluorescence (RF)
1,"COc1ccc(C2CNC(=O)C2)cc1OC1CCCC1 (stereo not drawn) [Rolipram, reference compound]",1.56

# Same assay, conditions: U937 cells, concentration 3 μM, salbutamol 1 μM
row,Compound,Relative Fluorescence (RF)
1,"COc1ccc(C2CNC(=O)C2)cc1OC1CCCC1 (stereo not drawn) [Rolipram, reference compound]",1.73

# System: arthritic (CIA) DBA/1J mice
# Assay: Collagen induced arthritis in mouse
# Type: in vivo
# Settings: Enbrel 3 mg/kg s.c. once daily, 23 days
# Procedure: The assay was designed as in reference, J. Exp. Med., 1985, 162, 637-646, the disclosure of which is incorporated herein by reference for the teaching of the assay.
# Male DBA/1J mice (originally procured from Jackson Laboratories, USA), aged 8-10 weeks were immunized with an emulsion equivalent to 200 μg of type II collagen in Freund's Complete Adjuvant, injected intradermally at the base of the tail. A booster shot with the same emulsion was given 21 days later. A group of naïve mice was maintained alongside.
# From day 23 to day 56, mice were examined daily once for the signs of rheumatoid arthritis, using the Articular Index and paw thickness as parameters. Articular Index scoring was performed employing the following criteria:
# Mice with a minimum hind paw score of 2 were inducted into the study.
# Mice were randomized into the various study groups and orally administered the vehicle (0.5% CMC, 1 ml/kg), test compound (compound of example 3, 50 mg/kg twice daily) and standard compound (Enbrel, 3 mg/kg, s.c., once daily). […] The dosing of the compounds was done for 23 days.
# The following parameters were observed and recorded daily, • 1. Body weight • 2. Articular index • 3. Paw thickness in mm using a tension free caliper • 4. Any significant observation regarding the condition of the animal. […]
# The results are graphically depicted in FIG. 3 (Articular index versus days of treatment) and FIG. 4 (Paw thickness versus days of treatment). Data obtained during the course of this study (articular index and paw thickness) was statistically evaluated by applying Mann-Whitney U test.
# Mice were humanely euthanized and the hind paws were harvested from each animal, fixed in 10% neutral buffered formalin, decalcified in 5% formic acid and embedded in paraffin. Section […] were stained with either hematoxylin and eosin or safranin 0 and evaluated microscopically. Histopathological changes were scored as follows: mild (score=1), moderate (score=2) or severe (score=3) for the parameters of cellular infiltration, bone erosions and cartilage damage, graded separately. […]
row,Compound,Severity of disease by articular index and paw thickness
1,Enbrel,significant reduction in the severity of the disease
